Where “and” joins values, the source holds several entries; their conditions need not be identical. Equal values may be shown once. Calls of active or inactive are those of the source.
Experiments:
[1] = biological target: Beta-2 adrenergic receptor (Homo sapiens, UniProt P07550); assay: ADRB2 activation measured by internalization – cell-based, FAP fluorogen, flow cytometry, cherry pick 1, dose response (AID 588763); format: functional
[2] = viability loss in THP-1 monocytes – THP-1 cells, cytotoxicity control for Vif-APOBEC3G degradation inhibitor project, dose response (AID 1117359); format: functional; settings: THP-1
[3] = biological target: T1, High affinity choline transporter 1 (Homo sapiens, UniProt Q9GZV3); assay: human choline transporter blockers, potency – cell-based, 10-point CRC, membrane potential dye, dose response (AID 588401); format: functional;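 also: membrane potential dye fluorescence of choline-evoked depolarization via CHT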
T1 sequence (Q9GZV3 whole entry): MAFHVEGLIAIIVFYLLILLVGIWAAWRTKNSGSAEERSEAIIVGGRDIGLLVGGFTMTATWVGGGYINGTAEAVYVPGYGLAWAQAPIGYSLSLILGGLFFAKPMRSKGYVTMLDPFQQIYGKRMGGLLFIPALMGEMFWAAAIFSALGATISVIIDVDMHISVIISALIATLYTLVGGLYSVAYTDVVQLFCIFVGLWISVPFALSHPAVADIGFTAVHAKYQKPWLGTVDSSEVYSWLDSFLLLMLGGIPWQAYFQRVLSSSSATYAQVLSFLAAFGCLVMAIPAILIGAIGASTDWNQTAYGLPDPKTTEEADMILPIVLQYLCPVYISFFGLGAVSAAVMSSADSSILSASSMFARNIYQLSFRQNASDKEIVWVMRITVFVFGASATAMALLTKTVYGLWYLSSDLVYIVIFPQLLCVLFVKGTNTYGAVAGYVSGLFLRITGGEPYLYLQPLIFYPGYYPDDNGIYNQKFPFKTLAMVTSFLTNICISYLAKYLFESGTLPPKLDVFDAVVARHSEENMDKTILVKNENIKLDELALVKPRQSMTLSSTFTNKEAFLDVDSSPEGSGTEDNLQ

[4] = biological target: T1, High affinity choline transporter 1; assay: human choline transporter blockers, potency – cell-based, 5-point CRC, membrane potential dye, dose response (AID 504840); format: functional
[5] = HEK-293T viability loss after treatment – luminescence, T-cell screen hits, cytotoxicity control for TCR NF-kB inhibitor project, dose response (AID 489026); format: functional, cell-based;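 also: cells exposed to compound about 14 hours before the viability readout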
[6] = biological target: T2, Corticotropin-releasing factor receptor 2/Corticotropin-releasing factor-binding protein (Homo sapiens, UniProt P24387+Q13324); assay: activators of CRF receptor 2 with binding protein – uHTS hits, confirmation (AID 602473); format: functional; settings: read-out: EC50_Mean
T2 sequence (Q13324 whole entry): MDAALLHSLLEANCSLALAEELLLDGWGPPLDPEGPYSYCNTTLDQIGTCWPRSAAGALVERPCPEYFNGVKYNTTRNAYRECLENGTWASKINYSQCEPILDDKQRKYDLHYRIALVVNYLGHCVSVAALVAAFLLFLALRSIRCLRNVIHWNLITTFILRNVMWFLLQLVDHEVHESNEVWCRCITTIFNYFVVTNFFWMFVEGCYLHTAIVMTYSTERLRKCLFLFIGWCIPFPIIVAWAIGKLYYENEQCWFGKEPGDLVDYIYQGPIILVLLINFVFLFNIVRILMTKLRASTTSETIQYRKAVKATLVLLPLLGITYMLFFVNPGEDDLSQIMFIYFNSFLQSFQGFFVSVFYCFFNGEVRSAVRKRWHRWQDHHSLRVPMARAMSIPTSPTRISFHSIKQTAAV
T2 sequence (P24387 whole entry): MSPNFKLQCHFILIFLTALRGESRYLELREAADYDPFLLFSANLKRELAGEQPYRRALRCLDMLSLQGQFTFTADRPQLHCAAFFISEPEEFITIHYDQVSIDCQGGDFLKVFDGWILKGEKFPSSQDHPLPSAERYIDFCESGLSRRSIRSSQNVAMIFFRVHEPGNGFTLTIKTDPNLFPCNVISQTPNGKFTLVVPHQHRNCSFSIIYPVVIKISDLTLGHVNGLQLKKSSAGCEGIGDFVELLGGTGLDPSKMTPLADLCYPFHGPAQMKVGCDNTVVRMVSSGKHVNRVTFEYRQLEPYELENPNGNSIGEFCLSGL

Protein skinhead-1 = biological target: T3, Protein skinhead-1 (Caenorhabditis elegans, UniProt P34707); format: functional
T3 sequence (P34707 whole entry): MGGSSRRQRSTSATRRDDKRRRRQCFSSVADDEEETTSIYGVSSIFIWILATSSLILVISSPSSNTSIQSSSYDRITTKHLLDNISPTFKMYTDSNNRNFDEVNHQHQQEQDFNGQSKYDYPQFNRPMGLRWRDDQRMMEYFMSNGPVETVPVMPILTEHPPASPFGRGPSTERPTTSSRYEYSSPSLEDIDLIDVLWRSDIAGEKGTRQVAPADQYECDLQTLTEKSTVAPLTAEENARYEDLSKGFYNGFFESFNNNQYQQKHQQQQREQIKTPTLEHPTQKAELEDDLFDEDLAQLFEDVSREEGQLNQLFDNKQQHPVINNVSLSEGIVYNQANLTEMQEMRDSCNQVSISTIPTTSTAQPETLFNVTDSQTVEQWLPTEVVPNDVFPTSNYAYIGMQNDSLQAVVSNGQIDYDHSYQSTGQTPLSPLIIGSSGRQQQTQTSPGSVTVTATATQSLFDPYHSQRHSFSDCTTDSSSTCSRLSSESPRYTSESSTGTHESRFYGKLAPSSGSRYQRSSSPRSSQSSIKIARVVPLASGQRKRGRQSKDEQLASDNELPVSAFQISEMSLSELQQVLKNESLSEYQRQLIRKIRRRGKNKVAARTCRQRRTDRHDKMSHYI

[7] = biological target: T2, Corticotropin-releasing factor receptor 2/Corticotropin-releasing factor-binding protein; assay: Dose Response confirmation of uHTS hits for small molecule antagonists of the CRF-binding protein and CRF-R2 receptor complex.; format: functional; settings: read-out: IC50_Mean
[8] = alpha-synuclein stem-loop luciferase translation blockers – H4 neuroglioma cells, luminescence, confirmation (AID 1988); format: functional, cell-based
[9] = Luminescence Cell-Based Dose Response HTS to Identify Inhibitors of 5'UTR Stem-Loop Driven Prion Protein mRNA Translation in H4 Neuroglioblastoma Cells. [Related pubchem assays: 1827 (Project Summary), 1813 (Primary HTS)]; format: functional
BJ [10] = assay: BJ-TERT-LT-ST fibroblast viability loss – cell-based, RAS-independent, luminescence, dose response (AID 1935); format: functional; settings: Homo sapiens;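 also: BJ fibroblasts immortalized with TERT plus LT and ST oncogenes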
[11] = luciferase reporter signal suppression in cells – H4 neuroglioma cells, luminescence, dose response (AID 1990); format: functional, cell-based
BJ [12] = assay: BJ-TERT fibroblast viability loss – cell-based, RAS-independent, luminescence, dose response (AID 1933); format: functional; settings: Homo sapiens
[13] = DRD fibroblast viability loss – cell-based, non-viral oncogenic, luminescence, dose response (AID 1934); format: functional; settings: Homo sapiens
[14] = Luminescence Cell-Based Dose Retest to Confirm Inhibitors of Cancer Stem Cells. [Related pubchem assays (depositor defined):AID2717, AID2721]; format: functional; settings: Homo sapiens
BJ [15] = assay: cells; format: functional, cell-based; settings: Homo sapiens
INS1 = assay: INS-1E survival protection against cytokine death – cell-based, luminescence, retest, dose response (AID 449756); format: functional; settings: Rattus norvegicus;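 also: cell death triggered by IL-1 beta plus TNF-alpha plus IFN-gamma mixture; protective hits raise ATP signal compared with cytokine alone wells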
[16] = biological target: T4, Heat shock factor protein 1 (Mus musculus, UniProt P38532); assay: decrease of HSF1-responsive luciferase luminescence – cell-based, NIH3T3, dose retest, confirmation (AID 2382); format: functional;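 also: NIH3T3 fibroblasts with HSF1-driven luciferase reporter stressed by proteasome inhibitor MG132; luminescence from HSF1-driven luciferase expression after 8 hours of MG132 stress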
T4 sequence (P38532 whole entry): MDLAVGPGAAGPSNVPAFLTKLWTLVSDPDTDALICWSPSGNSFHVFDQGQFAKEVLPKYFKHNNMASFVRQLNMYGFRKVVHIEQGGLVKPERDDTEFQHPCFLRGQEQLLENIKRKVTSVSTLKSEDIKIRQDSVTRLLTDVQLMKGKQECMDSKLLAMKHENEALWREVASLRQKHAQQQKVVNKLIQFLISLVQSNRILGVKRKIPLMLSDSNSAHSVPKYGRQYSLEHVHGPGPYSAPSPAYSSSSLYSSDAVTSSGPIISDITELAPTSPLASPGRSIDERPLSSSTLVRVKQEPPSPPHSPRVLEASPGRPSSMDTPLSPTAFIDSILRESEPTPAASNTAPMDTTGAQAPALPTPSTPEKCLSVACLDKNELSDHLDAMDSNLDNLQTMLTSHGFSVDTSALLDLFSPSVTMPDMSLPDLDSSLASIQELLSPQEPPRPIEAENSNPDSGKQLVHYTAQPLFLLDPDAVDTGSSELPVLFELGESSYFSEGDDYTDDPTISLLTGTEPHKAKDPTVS

[17] = biological target: T5, Calpain-2 catalytic subunit (Sus scrofa, UniProt P43367); assay: m-calpain protease blockers, concentration series – biochemical, fluorogenic peptide substrate, dose response (AID 1420); format: functional
T5 sequence (P43367 whole entry): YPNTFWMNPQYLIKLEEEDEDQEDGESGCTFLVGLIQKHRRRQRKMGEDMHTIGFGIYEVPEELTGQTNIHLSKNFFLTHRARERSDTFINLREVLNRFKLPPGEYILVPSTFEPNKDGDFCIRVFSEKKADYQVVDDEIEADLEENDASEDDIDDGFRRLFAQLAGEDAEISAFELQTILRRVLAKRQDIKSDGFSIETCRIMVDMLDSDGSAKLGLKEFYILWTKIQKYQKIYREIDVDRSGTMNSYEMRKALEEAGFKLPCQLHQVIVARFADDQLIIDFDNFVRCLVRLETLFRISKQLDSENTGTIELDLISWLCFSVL

[18] = viability of uninfected HEp-2 cells – cell-based, HTS, cytotoxicity control for RSV inhibitor project, dose response (AID 2410); format: functional; settings: human respiratory syncytial virus
[19] = off-target signal loss in HeLa-CEM21 co-culture – HeLa F-luc CTL cells, cherry-picked, counter-screen for HIV-1 Env fusion inhibitor project, dose response (AID 652040); format: functional, cell-based;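 also: potency for signal decrease marking cytotoxic or nonspecific inhibition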
[20] = blockers of HIV-1 envelope-mediated cell-cell fusion – cherry-pick, dose response (AID 652057); format: functional, cell-based
[21] = blockers of HIV-1 ZM109 envelope-driven cell-cell fusion – HeLa effector, CEM target cells, luciferase, cherry-pick, dose response (AID 652058); format: functional, cell-based;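 also: luciferase signal from HIV-1 Env mediated cell-cell fusion of effector and target cells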

Chain of Beta-2 adrenergic receptor (P07550 whole entry): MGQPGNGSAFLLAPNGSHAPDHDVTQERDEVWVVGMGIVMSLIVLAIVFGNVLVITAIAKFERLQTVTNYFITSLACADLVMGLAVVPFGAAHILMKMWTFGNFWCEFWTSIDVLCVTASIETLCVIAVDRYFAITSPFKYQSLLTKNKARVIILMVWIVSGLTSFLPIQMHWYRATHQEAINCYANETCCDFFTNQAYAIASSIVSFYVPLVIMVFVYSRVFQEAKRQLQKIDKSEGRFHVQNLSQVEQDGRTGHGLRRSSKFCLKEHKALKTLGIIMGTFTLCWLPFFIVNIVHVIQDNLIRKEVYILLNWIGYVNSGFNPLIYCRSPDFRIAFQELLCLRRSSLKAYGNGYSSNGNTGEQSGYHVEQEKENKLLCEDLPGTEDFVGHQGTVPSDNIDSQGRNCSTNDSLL

COc1ccc([C@H]2/C=C\CN(Cc3ccc(N(C)C)cc3)[C@@H](C)C(=O)N2Cc2ccc(F)cc2)cc1
EC50 [1]: 4.36 µM (active)

CCc1ccc(N(C2C=CS(=O)(=O)C2)S(=O)(=O)c2ccc(C)cc2)cc1 (stereo not drawn)
CC50 [2]: > 40 µM (active)

Cn1c2c(c(=O)c3ccccc31)CCCC2
IC50 [3]: 4.22 µM (active) | IC50 [4]: 6.99 µM (active)

CCN(CC)P(=S)(c1c(C)nc2ccccn12)c1c(C)nc2ccccn12
CC50 [2]: 13.9 µM (active)

COC(=O)Cn1ccc(N(C)C)c(C#N)c1=O
IC50 [3]: 2.89 µM (active) | IC50 [4]: 4.07 µM (active)

COc1ccc(C(=O)c2ccc(N(C)C)cc2)c(OC)c1
IC50 [5]: > 80 µM (inactive)

c1cn(C23CC4CC(CC(C4)C2)C3)cn1
IC50 [3]: 3.57 µM (active) | IC50 [4]: 7.43 µM (active)

COc1ccc(Cc2nc(-c3ccc(Cl)cc3)no2)cc1
EC50 [6]: > 53 µM (inactive) | IC50 (Protein skinhead-1): > 100 µM (inactive) | IC50 [7]: > 47.1 µM (inactive)

COc1ccc(/C=C/C(=O)c2ccc([N+](=O)[O-])o2)cc1OC
EC50 [8]: > 120 µM (not active) | EC50 [9]: 10.5 µM (active) | EC50 (BJ [10]): 1.15 µM (inconclusive) | EC50 [11]: 9.14 µM (active) | EC50 (BJ [12]): > 150 µM (not active) | EC50 [13]: 2.58 µM (inconclusive) | AC50 [14]: 2.09 µM (active) | EC50 (BJ [15]): > 150 µM (inconclusive) | AC50 (INS1): 3.94 µM (active)

COc1ccc(C2Nc3ccccc3C(=O)N2c2ccc(Cl)cc2)cc1Cn1cc([N+](=O)[O-])cn1 (stereo not drawn)
CC50 [2]: > 40 µM (active)

CCCCOc1cccc(C(=O)Nc2ccc(NC(=O)c3cccs3)cc2)c1
EC50 [16]: 9.51 µM (active) | EC50 [1]: 0.256 µM (active)

COc1cc([C@@H]2c3cc4c(cc3[C@@H](OC)[C@H]3COC(=O)[C@H]23)OCO4)cc(OC)c1O
IC50 [5]: > 80 µM (inactive)

COCCCNc1ncnc2c1sc1nc(-c3ccco3)c3c(c12)CC(C)(C)OC3
EC50 [1]: 0.0417 µM (active)

CC(=O)Nc1cc(C(=O)OC(C(=O)c2ccccc2)c2ccccc2)ccc1C (stereo not drawn)
IC50 [17]: > 50 µM (not active) | EC50 [1]: 0.402 µM (active)

O=C(Nc1cccc(-c2nc3ccccc3s2)c1)c1cccs1
CC50 [18]: 15.4 µM (active) | EC50 [1]: 16.9 µM (inactive)

CCC(=O)c1ccc(OCC(=O)N2CCN(CC(=O)Nc3ccc(C)cc3)CC2)cc1
EC50 [1]: 0.0646 µM (active)

Cc1ccccc1NC(=O)c1ccc(C)c(S(=O)(=O)NCc2cccnc2)c1
IC50 [3]: 5.77 µM (active) | IC50 [4]: 9.77 µM (active)

COC(=O)C1(C(=O)OC)C[C@H](c2ccc(OC)cc2)N(Cc2ccccc2OC)[C@@H]1c1cccs1
AC50 [19]: 4.05 µM (active) and 2.64 µM (active) | AC50 [20]: 2.05 µM (active) and 2.55 µM (active) | AC50 [21]: 4.03 µM (active) and 2.19 µM (active)

Oc1cc(-c2ccccc2)nc2cc(F)ccc12
IC50 [5]: > 80 µM (inactive)
